Data: paper PMC12169608, “Peptidomimetic Phenoxymethyl Ketone Warheads as Potent Dual-Mode Inhibitors against SARS-CoV‑2 M^pro and Cathepsin” (Journal of Medicinal Chemistry, 2025)
Converted amounts (≈) assume the structure as drawn.

What was measured:
in vitro [1] = conditions: mouse, microsomes, pH 7.4
Caspase 2 = target: T1, Caspase 2 (Homo sapiens, UniProt P42575); assay: Protease panel: Caspase 2; assay type: biochemical
T1 construct: purchased Eurofins Discovery (assay service); host or cells: E. coli
T1 sequence (P42575 170-325 limits assumed): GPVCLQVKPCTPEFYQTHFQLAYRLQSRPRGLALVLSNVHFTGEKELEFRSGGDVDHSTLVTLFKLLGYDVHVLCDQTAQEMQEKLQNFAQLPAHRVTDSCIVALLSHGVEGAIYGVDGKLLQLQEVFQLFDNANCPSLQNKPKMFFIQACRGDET
T1 sequence (P42575 348-452 limits assumed): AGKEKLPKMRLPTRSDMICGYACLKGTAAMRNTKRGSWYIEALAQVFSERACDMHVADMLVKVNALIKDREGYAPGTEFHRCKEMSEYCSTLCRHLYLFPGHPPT

[2] = tested on: luciferase-expressing VSV (ΔG) pseudotyped with Spike from SARS-CoV-2; assay: microbe, parasite or virus in culture; assay type: cell-based; conditions: Vesicular stomatitis virus, Vero C1008, read-out: Entry reporter assay pEC50 (converted)
trypsin = assay: Protease panel: trypsin
SARS-CoV-2 M^pro = SARS-CoV-2 M^pro (Severe acute respiratory syndrome coronavirus 2, UniProt P0DTD1); assay: biochemical; assay type: biochemical; conditions: read-out: M^pro biochemical assay pIC50 (converted)
in vitro [3] = conditions: mouse, hepatocytes
in vitro [4] = conditions: African green monkey
[5] = Mouse liver microsomal stability; conditions: microsomes, pH 7.4
[6] = target: mouse cathepsin L (mCTSL) (Mus musculus, UniProt P06797); assay: mCTSL biochemical assay; conditions: read-out: pIC50 (mouse CTSL) (converted)
mouse cathepsin L (mCTSL), sequence (P06797 114-334): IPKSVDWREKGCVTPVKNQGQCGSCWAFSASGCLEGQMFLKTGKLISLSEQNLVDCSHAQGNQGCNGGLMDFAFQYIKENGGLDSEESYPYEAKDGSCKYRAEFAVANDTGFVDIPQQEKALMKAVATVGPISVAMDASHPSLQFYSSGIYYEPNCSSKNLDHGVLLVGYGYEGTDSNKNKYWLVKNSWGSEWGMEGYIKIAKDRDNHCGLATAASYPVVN

[7] = Mouse hepatocyte stability; conditions: mouse, cryopreserved hepatocytes
Neutrophil Elastase 2 = target: T2, Neutrophil Elastase 2 (Homo sapiens, UniProt P08246); assay: Protease panel: Neutrophil Elastase 2; assay type: biochemical
T2 construct: neutrophils; tissue Eurofins Discovery (assay service); host or cells: human neutrophils
T2 sequence (P08246 30-267): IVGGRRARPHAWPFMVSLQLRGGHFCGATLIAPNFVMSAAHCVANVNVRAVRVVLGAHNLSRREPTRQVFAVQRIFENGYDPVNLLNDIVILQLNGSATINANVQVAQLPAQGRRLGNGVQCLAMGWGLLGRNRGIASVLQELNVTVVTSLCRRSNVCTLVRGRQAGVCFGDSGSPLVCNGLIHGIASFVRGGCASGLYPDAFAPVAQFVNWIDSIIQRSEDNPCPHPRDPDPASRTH

in vitro [8] = conditions: mouse, plasma, mouse plasma protein binding
thrombin = target: T3, thrombin (Homo sapiens, UniProt P00734); assay: Protease panel: thrombin; assay type: biochemical
T3 construct: preincubated with thrombin (10 nM, Sigma); purchased Sigma-Aldrich

Cathepsin D = target: T4, Cathepsin D (Homo sapiens, UniProt P07339); assay: Protease panel: Cathepsin D; assay type: biochemical
T4 construct: Human liver; tissue Eurofins Discovery (assay service); host or cells: human liver
T4 sequence (P07339 65-412): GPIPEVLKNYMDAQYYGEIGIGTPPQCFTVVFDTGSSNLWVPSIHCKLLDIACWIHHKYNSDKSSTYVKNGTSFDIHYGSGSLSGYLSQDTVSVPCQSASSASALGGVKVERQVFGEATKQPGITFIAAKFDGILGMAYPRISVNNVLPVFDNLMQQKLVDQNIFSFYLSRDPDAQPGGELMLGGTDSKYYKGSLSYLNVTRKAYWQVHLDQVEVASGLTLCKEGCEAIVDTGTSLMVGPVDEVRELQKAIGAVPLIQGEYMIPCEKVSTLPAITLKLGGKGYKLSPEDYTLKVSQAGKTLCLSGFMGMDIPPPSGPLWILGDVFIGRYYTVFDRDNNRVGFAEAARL

[9] = 3 h, 2 µM
physchem [10] = conditions: pH 7.4
[11] = Hamster liver microsomal stability; conditions: microsomes, pH 7.4
[12] = target: human cathepsin B (hCTSB) (Homo sapiens, UniProt P07858); assay: hCTSB biochemical assay
SARS-CoV-2 = assay: microbe, parasite or virus in culture; assay type: cell-based; conditions: Severe acute respiratory syndrome coronavirus 2, Vero C1008, read-out: SARS-CoV-2 CPE reduction assay pEC50 (converted)
in vitro [13] = conditions: hamster, microsomes, pH 7.4
[14] = Hamster hepatocyte stability; conditions: cryopreserved hepatocytes, t1/2 (hamster hepatocytes), without ritonavir
physchem [15] = conditions: pH 7.4; remark: listed apart in the source
[16] = target: T5, human cathepsin L (hCTSL) (Homo sapiens, UniProt P07711); assay: hCTSL biochemical assay
T5 construct: purchased R&D Systems
T5 sequence (P07711 114-333): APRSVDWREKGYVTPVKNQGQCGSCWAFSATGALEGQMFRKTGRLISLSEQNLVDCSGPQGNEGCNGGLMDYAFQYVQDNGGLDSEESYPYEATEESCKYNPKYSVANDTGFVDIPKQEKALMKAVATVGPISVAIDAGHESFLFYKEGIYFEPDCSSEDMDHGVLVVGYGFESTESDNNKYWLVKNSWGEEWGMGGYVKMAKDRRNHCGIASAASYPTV

in vitro [17] = conditions: hamster, hepatocytes; for hepatocyte CLint at 2 h, 4 µM: CLint (hamster hepatocytes + ritonavir 4:1); for hepatocyte CLint at 2 h, 2 µM: CLint (hamster hepatocytes); for half-life at 2 h, 4 µM: t1/2 (hamster hepatocytes + ritonavir 4:1)
Calpain-1 = target: T6, Calpain-1 (Homo sapiens, UniProt P07384); assay: Protease panel: Calpain-1; assay type: biochemical
T6 construct: erythrocytes; tissue Eurofins Discovery (assay service); host or cells: human erythrocytes
T6 sequence (P07384 1-714): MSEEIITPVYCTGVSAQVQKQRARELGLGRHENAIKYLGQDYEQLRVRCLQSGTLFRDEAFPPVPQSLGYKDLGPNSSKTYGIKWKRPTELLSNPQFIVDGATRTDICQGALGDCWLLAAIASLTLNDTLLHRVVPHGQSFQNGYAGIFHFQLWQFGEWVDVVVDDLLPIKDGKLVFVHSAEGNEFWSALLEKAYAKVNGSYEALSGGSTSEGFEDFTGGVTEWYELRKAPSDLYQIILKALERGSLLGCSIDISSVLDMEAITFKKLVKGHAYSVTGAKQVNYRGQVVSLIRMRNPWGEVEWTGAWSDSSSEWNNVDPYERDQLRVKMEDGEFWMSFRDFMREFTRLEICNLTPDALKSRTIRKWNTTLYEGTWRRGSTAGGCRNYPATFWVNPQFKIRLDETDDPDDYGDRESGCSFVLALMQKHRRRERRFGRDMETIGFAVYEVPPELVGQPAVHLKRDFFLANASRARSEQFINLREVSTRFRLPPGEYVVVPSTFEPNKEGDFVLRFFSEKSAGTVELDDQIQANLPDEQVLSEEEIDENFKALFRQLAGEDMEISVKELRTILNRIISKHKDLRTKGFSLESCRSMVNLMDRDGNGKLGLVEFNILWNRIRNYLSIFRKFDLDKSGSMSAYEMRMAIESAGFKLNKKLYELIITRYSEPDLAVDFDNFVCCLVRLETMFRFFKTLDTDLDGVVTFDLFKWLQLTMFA
T6 sequence (P04632 1-268 partner): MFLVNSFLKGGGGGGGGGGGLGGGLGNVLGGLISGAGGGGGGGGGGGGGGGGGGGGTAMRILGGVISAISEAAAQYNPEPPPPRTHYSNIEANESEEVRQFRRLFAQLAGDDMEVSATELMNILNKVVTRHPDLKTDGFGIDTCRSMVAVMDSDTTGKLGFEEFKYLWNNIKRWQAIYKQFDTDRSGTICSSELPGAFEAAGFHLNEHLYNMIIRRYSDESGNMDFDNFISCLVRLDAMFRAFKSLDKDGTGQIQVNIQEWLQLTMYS

hamster CTSL = hamster CTSL (Mesocricetus auratus, UniProt Q812A7); assay: hamster CTSL biochemical assay
hamster CTSL, sequence (Q812A7 entry or part of it): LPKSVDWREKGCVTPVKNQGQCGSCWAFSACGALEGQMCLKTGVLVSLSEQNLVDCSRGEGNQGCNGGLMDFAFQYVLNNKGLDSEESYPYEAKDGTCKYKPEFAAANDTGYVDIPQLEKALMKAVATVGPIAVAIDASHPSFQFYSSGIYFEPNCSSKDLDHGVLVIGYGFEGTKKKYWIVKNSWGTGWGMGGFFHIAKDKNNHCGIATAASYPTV

[18] = target: mouse cathepsin B (mCTSB) (Mus musculus, UniProt P10605); assay: mCTSB biochemical assay; conditions: read-out: pIC50 (mouse CTSB) (converted)
mouse cathepsin B (mCTSB), sequence (P10605 80-339): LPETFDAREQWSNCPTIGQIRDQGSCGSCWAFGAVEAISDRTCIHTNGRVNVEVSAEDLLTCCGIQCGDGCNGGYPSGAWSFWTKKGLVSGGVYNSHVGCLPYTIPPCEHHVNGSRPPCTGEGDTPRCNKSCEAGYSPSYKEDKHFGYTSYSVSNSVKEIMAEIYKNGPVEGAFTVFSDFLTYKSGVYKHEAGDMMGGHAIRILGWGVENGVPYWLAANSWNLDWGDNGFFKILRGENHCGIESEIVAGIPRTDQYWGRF

[19] = % remaining at 120 min (hamster hepatocytes, compound/ritonavir 1:1)
[20] = % remaining at 120 min (hamster hepatocytes, compound/ritonavir 2:1)
[21] = CLint (hamster hepatocytes, compound/ritonavir 1:1)
[22] = CLint (hamster hepatocytes, compound/ritonavir 2:1)
[23] = t1/2 (hamster hepatocytes, compound/ritonavir 1:1)
[24] = t1/2 (hamster hepatocytes, compound/ritonavir 2:1)

Compound	CC50 (in vitro [4])	IC50 [6]	half-life at 1 µM [7]	fraction unbound at 3 h, 2 µM (in vitro [8]; fraction bound (Fb))	fraction unbound at 3 h, 2 µM (in vitro [8]; fraction unbound (Fu))	mouse plasma protein binding, fraction bound (Fb) [9]	logD at 1 h (physchem [10])	half-life at 1 µM [11]	hCTSB biochemical assay pIC50 [12]	EC50 (SARS-CoV-2)	microsomal CLint at 1 µM (in vitro [13])	remaining at 1 h, 1 µM (in vitro [13])	half-life at 2 h, 2 µM [14]	solubility kinetic at 24 h (physchem [15])	hCTSL biochemical assay pIC50 [16]	remaining at 2 h, 1 µM (in vitro [17]; [19])	remaining at 2 h, 1 µM (in vitro [17]; [20])	hepatocyte CLint at 2 h, 4 µM (in vitro [17])	hepatocyte CLint at 2 h, 2 µM (in vitro [17])	hepatocyte CLint at 1 µM (in vitro [17]; [21])	further results
COc1cccc2[nH]c(C(=O)N[C@@H](Cc3cccc(F)c3)C(=O)N[C@@H](C[C@@H]3CCNC3=O)C(=O)COc3c(F)c(F)c(C(C)O)c(F)c3F)cc12 (stereo partly drawn) [compound 8, N-((2S)-3-(3-Fluorophenyl)-1-oxo-1-(((2S)-3-oxo-1-((S)-2-oxopyrrolidin-3-yl)-4-(2,3,5,6-tetrafluoro-4-(1-hydroxyethyl)phenoxy)butan-2-yl)amino)propan-2-yl)-4-methoxy-1H-indole-2-carboxamide]	> 1.26 µM	0.288 µM	26.9 min	0.0083	0.0083	99.17%	3.26	1.08 min	5.73	0.158 µM	1290 µL/min/mg	0%	20.9 min	12.3 µM (≈ 8.81 µg/mL)	7.34	7.05%	2.78%	29.7 µL/min/1e6 cells	33.1 µL/min/1e6 cells	22.6 µL/min/1e6 cells	microsomal CLint at 1 µM (in vitro [1]): 1100 µL/min/mg; remaining at 1 h, 1 µM (in vitro [1]): 0%; inhibition at 10 µM (Caspase 2): 20%; EC50 [2]: 2.88 µM; Trypsin inhibition at 10 μM (trypsin): 7.5 ± 4.9%; IC50 (SARS-CoV-2 M^pro): 0.00562 µM; hepatocyte CLint at 2 h, 2 µM (in vitro [3]; CLint (mouse hepatocytes)): 64.5 µL/min/1e6 cells; half-life at 1 µM [5]: 1.28 min; inhibition at 10 µM (Neutrophil Elastase 2): 2%; inhibition at 10 µM (thrombin): -0.2 ± 0.6%; inhibition at 10 µM (Cathepsin D): 9%; hepatocyte CLint at 1 µM (in vitro [17]; [22]): 31.7 µL/min/1e6 cells; half-life at 2 h, 4 µM (in vitro [17]): 23.3 min; half-life at 1 µM (in vitro [17]; [23]): 30.7 min; half-life at 1 µM (in vitro [17]; [24]): 21.9 min; inhibition at 10 µM (Calpain-1): 5%; pIC50 (hamster CTSL) (hamster CTSL): 7.92 ± 0.18
CC(C)(C)[C@H](NC(=O)C(F)(F)F)C(=O)N1C[C@H]2[C@@H]([C@H]1C(=O)N[C@@H](C[C@@H]1CCNC1=O)C(=O)COc1c(F)c(F)c(CO)c(F)c1F)C2(C)C [compound 7, (1R,2S,5S)-3-((S)-3,3-Dimethyl-2-(2,2,2-trifluoroacetamido)butanoyl)-6,6-dimethyl-N-((S)-3-oxo-1-((S)-2-oxopyrrolidin-3-yl)-4-(2,3,5,6-tetrafluoro-4-(hydroxymethyl)phenoxy)butan-2-yl)-3-azabicyclo[3.1.0]hexane-2-carboxamide]	> 0.501 µM	35.5 µM	14.3 min	0.0355	0.0355	96.45%	2.82	1.73 min	4.82	0.0501 µM	803 µL/min/mg	0.15%	13.8 min	71.3 µM (≈ 50.7 µg/mL)	< 4.30	20.8%	3.47%	41.9 µL/min/1e6 cells	50.2 µL/min/1e6 cells	12.5 µL/min/1e6 cells	Trypsin inhibition at 10 μM (trypsin): 9.9 ± 6.6%; hepatocyte CLint at 1 µM (in vitro [3]; CLint (mouse hepatocytes + ritonavir 4:1)): 21.8 µL/min/1e6 cells; hepatocyte CLint at 1 µM (in vitro [3]; CLint (mouse hepatocytes)): 121 µL/min/1e6 cells; inhibition at 10 µM (thrombin): 0.4 ± 0.9%; hCTSB activity (in words) ([12]; biochemical assay): no hCTSL and hCTSB activity was observed; hCTSL activity (in words) ([16]; biochemical assay): no hCTSL and hCTSB activity was observed; hepatocyte CLint at 1 µM (in vitro [17]; [22]): 27.4 µL/min/1e6 cells; half-life at 2 h, 4 µM (in vitro [17]): 16.6 min; half-life at 1 µM (in vitro [17]; [23]): 55.5 min; half-life at 1 µM (in vitro [17]; [24]): 25.3 min; IC50 [18]: 1.86 µM; pIC50 (hamster CTSL) (hamster CTSL): 5.07 ± 0.10
COc1cccc2[nH]c(C(=O)N[C@@H](Cc3cccc(F)c3)C(=O)N[C@@H](C[C@@H]3CCNC3=O)C(=O)COc3c(F)c(F)c(C(C)(C)O)c(F)c3F)cc12 [compound 10, N-((S)-3-(3-Fluorophenyl)-1-oxo-1-(((S)-3-oxo-1-((S)-2-oxopyrrolidin-3-yl)-4-(2,3,5,6-tetrafluoro-4-(2-hydroxypropan-2-yl)phenoxy)butan-2-yl)amino)propan-2-yl)-4-methoxy-1H-indole-2-carboxamide]	> 1.26 µM	0.933 µM	36.4 min	0.0105	0.0105	98.95%	3.15	2.77 min	5.94	0.12 µM	500 µL/min/mg	0%	25.2 min	3.65 µM (≈ 2.67 µg/mL)	6.95	11.6%	2.17%	19.4 µL/min/1e6 cells	27.5 µL/min/1e6 cells	16.4 µL/min/1e6 cells	microsomal CLint at 1 µM (in vitro [1]): 780 µL/min/mg; remaining at 1 h, 1 µM (in vitro [1]): 0%; EC50 [2]: 2.04 µM; IC50 (SARS-CoV-2 M^pro): 0.00708 µM; hepatocyte CLint at 2 h, 2 µM (in vitro [3]; CLint (mouse hepatocytes)): 47.6 µL/min/1e6 cells; half-life at 1 µM [5]: 1.9 min; hepatocyte CLint at 1 µM (in vitro [17]; [22]): 30.7 µL/min/1e6 cells; half-life at 2 h, 4 µM (in vitro [17]): 35.7 min; half-life at 1 µM (in vitro [17]; [23]): 42.2 min; half-life at 1 µM (in vitro [17]; [24]): 22.6 min
